# Results from PubChem BioAssay AID1963849 (Molecular Pharmacology Branch, DTP, NCI, 2024).
# Tested on: 299254-011-R-J1-PDC complex spheroid viability
# Assay: Anticancer human tumor 299254-011-R-J1-PDC patient-derived melanoma cell line growth inhibition [POLQ]
# Conditions: for IC50: curve of first compound; for viability, T/C: stronger effect = lower value
# Outline: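 Complex spheroid viability model combining PDC tumour cells with endothelial (HUVEC) and MSC stromal cells. Novobiocin, ART-558 or RP6685 were tested singly and in combination with standard and investigational anticancer drugs. Each was titrated in half-log steps from near clinical Cmax, or from 10 microM where Cmax was unknown.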
# 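Also: spheroids exposed to drugs for one week before measurement.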
# 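For viability, T/C in this document: percent viability relative to DMSO vehicle control taken as 100%.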
structure (smiles),measurement,setting,value
CC1COCCN1c1cc(C2(O)CC3CCC(C2)O3)c2cnn(-c3ccn[nH]3)c2n1 (configuration not stated) + Nc1ccc(C#CCN(C(=O)Cc2ncc(C(F)(F)F)cc2C(F)(F)F)c2ccc(F)cc2)nn1,IC50,second compound 0.0316 µM,168 nM
same,IC50,second compound 0.1 µM,173 nM
same,IC50,second compound 0.316 µM,130 nM
same,IC50,second compound 1 µM,138 nM
same,IC50,second compound 3.16 µM,98.2 nM
same,IC50,second compound 10 µM,97.1 nM
same,"viability, T/C","second compound 0.0316 µM, first compound 0.0316 µM",90.4%
same,"viability, T/C","second compound 0.0316 µM, first compound 0.1 µM",61.6%
same,"viability, T/C","second compound 0.0316 µM, first compound 0.316 µM",34.3%
same,"viability, T/C","second compound 0.0316 µM, first compound 1 µM",27.1%
same,"viability, T/C","second compound 0.0316 µM, first compound 3.16 µM",15.7%
same,"viability, T/C","second compound 0.0316 µM, first compound 10 µM",11.1%
same,"viability, T/C","second compound 0.1 µM, first compound 0.0316 µM",87.4%
same,"viability, T/C","second compound 0.1 µM, first compound 0.1 µM",55.3%
same,"viability, T/C","second compound 0.1 µM, first compound 0.316 µM",42.5%
same,"viability, T/C","second compound 0.1 µM, first compound 1 µM",29.8%
same,"viability, T/C","second compound 0.1 µM, first compound 3.16 µM",15.6%
same,"viability, T/C","second compound 0.1 µM, first compound 10 µM",13.2%
same,"viability, T/C","second compound 0.316 µM, first compound 0.0316 µM",80.6%
same,"viability, T/C","second compound 0.316 µM, first compound 0.1 µM",49.6%
same,"viability, T/C","second compound 0.316 µM, first compound 0.316 µM",39.5%
same,"viability, T/C","second compound 0.316 µM, first compound 1 µM",26.6%
same,"viability, T/C","second compound 0.316 µM, first compound 3.16 µM",18.5%
same,"viability, T/C","second compound 0.316 µM, first compound 10 µM",11.5%
same,"viability, T/C","second compound 1 µM, first compound 0.0316 µM",91%
same,"viability, T/C","second compound 1 µM, first compound 0.1 µM",55.7%
same,"viability, T/C","second compound 1 µM, first compound 0.316 µM",35.2%
same,"viability, T/C","second compound 1 µM, first compound 1 µM",21.5%
same,"viability, T/C","second compound 1 µM, first compound 3.16 µM",16.5%
same,"viability, T/C","second compound 1 µM, first compound 10 µM",12.9%
same,"viability, T/C","second compound 3.16 µM, first compound 0.0316 µM",79.1%
same,"viability, T/C","second compound 3.16 µM, first compound 0.1 µM",49.5%
same,"viability, T/C","second compound 3.16 µM, first compound 0.316 µM",31.8%
same,"viability, T/C","second compound 3.16 µM, first compound 1 µM",23.1%
same,"viability, T/C","second compound 3.16 µM, first compound 3.16 µM",18.9%
same,"viability, T/C","second compound 3.16 µM, first compound 10 µM",14%
same,"viability, T/C","second compound 10 µM, first compound 0.0316 µM",73.8%
same,"viability, T/C","second compound 10 µM, first compound 0.1 µM",48%
same,"viability, T/C","second compound 10 µM, first compound 0.316 µM",35.8%
same,"viability, T/C","second compound 10 µM, first compound 1 µM",22.1%
same,"viability, T/C","second compound 10 µM, first compound 3.16 µM",18.4%
same,"viability, T/C","second compound 10 µM, first compound 10 µM",15.5%
